Measured values published in US20070265194A1, “Agents for the treatment of viral infections” (priority 2000, published 2007).
Peptide text beside a SMILES is read from it. * marks the point of attachment. Cbz = O=C(OCc1ccccc1)*

Columns and labels:
mouse thymus cell lines = settings: cited from earlier work
HIV-1 protease = HIV-1 protease (Human immunodeficiency virus type 1 group M subtype B, UniProt P04585); experiment: In vitro Gag processing of recombinant Pr55 by recombinant HIV-1 protease, Western blot; format: biochemical; settings: for inhibition of protease activity: 10-fold higher concentration than in the cell culture, 30 min reaction, FIG. 3 reactions 4-9; for inhibitory action on Gag processing by HIV-1 protease: inhibitor concentration of up to 100 microM, enzyme-to-substrate ratio 1:25
Text: Therefore, a possible influence of proteasome inhibitors on the enzymic activity of the HIV-1 protease is investigated within the framework of the invention by studying the in vitro processing of Gag polyprotein (for this, see exemplary embodiment 4). For this purpose, according to the invention, recombinant Pr55 is expressed in insect cells and purified from released virus-like particles. Enzymatically active HIV-1 protease is expressed in E. coli and chromatographically purified. The specific activity of the protease is determined by means of titration of the active sites. Pr55 and protease are set to an enzyme-to-substrate ratio of 1:25 and incubated for a defined time under conditions under which only approx. 50% of the substrate Pr55 is proteolytically processed. These reaction conditions allow sensitive detection of small effects on the enzymic activity of the protease.
Recombinant HIV-1 Gag polyprotein Pr55 was prepared in insect cells and recombinant HIV-1 protease was prepared in E. coli. The experimental details of expression, purification and determination of the enzymic activity as well as carrying out the in vitro cleavage reactions and Western blots are illustrated in more detail in Example 6f. The enzyme-to-substrate ratios (protease-Pr55 ratio) were chosen in such a way that substrate conversion was relatively slow. After 30 min of reaction, approx. 50% of Pr55 had been cleaved. Under these conditions it is possible to determine even weakly inhibitory effects on the enzymic activity of the protease.
Myristylated Pr55 of HIV-1 was produced from virus-like particles which were released from insect cells infected with recombinant baculovirus Gag12myr. The virus-like particles were purified by centrifugation through a 20% sucrose layer. Recombinant HIV-1 protease expressed in E. coli was purified by means of gel filtration chromatography on Superose 12. The enzyme concentration was determined by means of active-site titration. For cleavage reactions, usually 1 μM Pr55 was incubated with 40 nM (nanomol) PR in reaction buffer (50 mM MES pH 6.5, 300 mM NaCl, 2 mM DTT, 1 mM EDTA, 0.1% Triton-X 100) at 37° C. for 30 min. In order to ensure maximum saturation of PR with inhibitors, PR was preincubated with the particular inhibitor for 5 min, prior to the start of the cleavage reactions. The cleavage reactions were stopped by adding SDS sample buffer and boiling the sample for 10 min. The cleavage products were fractionated in 10% SDS-PAGE and then detected by means of Western blot. For this purpose, anti-CA-specific antibodies were used which were detected by means of anti-rabbit IgG-peroxidase conjugate and chemiluminescence reaction.
Recombinant Pr55 was isolated from virus-like particles which had been produced by insect cells infected with recombinant bacculovirus. Recombinant HIV-1 protease was expressed in E. coli, purified, and the specific activity was determined by active-site titration. The quantities of Pr55 and protease were mixed with an enzyme-to-substrate ratio of 1:25 and incubated at 37° C. for 30 min. The reaction was stopped by adding SDS sample buffer. The cleavage reactions were then studied by Western blot analysis with CA-specific antiserum. Pr55, CA and intermediate processing product MA-Ca were made visible, after antibody binding, by means of a chemiluminescence reaction. […]

DHBV = experiment: Primary and secondary DHBV infection in primary duck hepatocytes, core immunofluorescence; format: cell-based, duck hepatitis B virus
20S proteasome = 20S proteasome (Homo sapiens, UniProt P28074); settings: in vitro; cited from earlier work
HIV-1NL4-3 [1] = experiment: HIV-1 replication in A3.01 cell culture, RT activity in supernatant; format: cell-based; settings: for productive infection in the culture (RT accumulation): 5 microM, approx. 2 weeks
HIV-1NL4-3 [2] = experiment: Virus release from HIV-1-infected A3.01 T cells, p24 CA capture ELISA; format: cell-based
Procedure: Cultures of human CD4^+ T cells, A3.01 were infected with HIV-1NL4-3 and cultured in RPMI for approx. 7 days. Approx. 80% of the cell culture medium was replaced every other day. The amount of released virus particles was determined by testing samples of the cell culture supernatants for activity of virus-associated RT. Furthermore, the spread of the infection was monitored by indirect immunofluorescence with anti-CA antibodies. The time of maximum spread of the infection in the culture was determined on the basis of RT accumulation and of syncytia formation. At the time of maximum virus production (approx. 7 days after infection), fresh noninfected A3.01 cells were mixed with the infected culture in a 1:1 ratio and incubated for another 24 h. This makes it possible to quasi-synchronize the infection and to maximize the number of infected cells with maximum HIV expression at a given time. The cells were divided into parallel cultures, washed with PBS and treated with 40 microM zLLL in medium for 4.5 hours. […] The virus-containing cell culture supernatants were collected, filtered, and the amount of Gag proteins was quantified by means of a standardized capture ELISA using anti-CA antibodies with different epitopes. […] The infectivity of the culture supernatants was determined by means of end point titration (detailed in example 6d) and is indicated as TCID50 in Table 1. The specific infectivity was determined by dividing TCID50 by the total amount of Gag and is listed in Table 1 as percentage infectivity of the control culture (no zLLL=100%). […]
CD4^+ T cells (A3.01) were infected with HIV-1NL4-3, at the time of maximum virus production (approx. 7 days post infection), parallel cultures were treated either without or with 40 μM zLLL for 1 (+zLLL “−1 hr”) or 6 hours (+zLLL “−6 hr”). […] The virus-containing supernatants were collected, and the amount of CA antigen was quantified by means of ELISA. The specific infectivity was determined as the infectious virus titer per nanog of CA and depicted relative to the untreated control culture (100%). […]

HIV-1NL4-3 [3] = format: cell-based
HIV-1NL4-3 [4] = experiment: Infectivity of released virions, end point titration (TCID50) on C8166 cells; format: cell-based; settings: for Infectivity Titer/ng p24^CA / Virus titer/ml TCID50 / Infectivity % of “no zLLL”: 40 μM zLLL; for Infectivity % of “no zLLL”: control = 100; for reduction of infectious virions in the cell culture medium: 40 microM zLLL
Procedure: Cultures of human CD4^+ T cells, A3.01 were infected with HIV-1NL4-3 and cultured in RPMI for approx. 7 days. Approx. 80% of the cell culture medium was replaced every other day. The amount of released virus particles was determined by testing samples of the cell culture supernatants for activity of virus-associated RT. Furthermore, the spread of the infection was monitored by indirect immunofluorescence with anti-CA antibodies. The time of maximum spread of the infection in the culture was determined on the basis of RT accumulation and of syncytia formation. At the time of maximum virus production (approx. 7 days after infection), fresh noninfected A3.01 cells were mixed with the infected culture in a 1:1 ratio and incubated for another 24 h. This makes it possible to quasi-synchronize the infection and to maximize the number of infected cells with maximum HIV expression at a given time. The cells were divided into parallel cultures, washed with PBS and treated with 40 microM zLLL in medium for 4.5 hours. Washing of the cells and culturing in fresh medium was necessary in order to monitor the newly produced viruses during the harvest period of 4.5 hours (+zLLL “0 hr”). It was assumed that there is a certain lag phase of approx. 1 hour, corresponding to HIV-1 assembly, between the start of the treatment with proteasome inhibitors and the release of defective virions. In order to monitor the virus production of cells with inactivated proteasomes at the start of the harvest period, parallel cultures were pretreated with 40 microm zLLL prior to the washing step for one (+zLLL “−1 hr”) or 6 hours (+zLLL “−6 hr”). A parallel culture was incubated without inhibitor (no zLLL). The virus-containing cell culture supernatants were collected, filtered, and the amount of Gag proteins was quantified by means of a standardized capture ELISA using anti-CA antibodies with different epitopes. […] The infectivity of the culture supernatants was determined by means of end point titration (detailed in example 6d) and is indicated as TCID50 in Table 1. The specific infectivity was determined by dividing TCID50 by the total amount of Gag and is listed in Table 1 as percentage infectivity of the control culture (no zLLL=100%). Both the release of Gag proteins and the infectivity of the released virions are shown to be inhibited after zLLL treatment. This effect increases with time, and infectious virions in the cell culture medium are reduced by 84% after 4.5 hours and by 98% after another 6 hours of pretreatment (Table 1).
CD4^+ T cells (A3.01) were infected with HIV-1NL4-3, at the time of maximum virus production (approx. 7 days post infection), parallel cultures were treated either without or with 40 μM zLLL for 1 (+zLLL “−1 hr”) or 6 hours (+zLLL “−6 hr”). This was followed by washing the cells and another 4.5 hours of incubating with or without 40 μM zLLL. In a parallel culture, cells were treated with 40 μM zLLL immediately after washing (+zLLL “0 hr”). The virus-containing supernatants were collected, and the amount of CA antigen was quantified by means of ELISA. The specific infectivity was determined as the infectious virus titer per nanog of CA and depicted relative to the untreated control culture (100%).
Acute HIV-1NL4-3-infected A3.01 cells were treated with 40 microM zLLL for various times, as indicated in exemplary embodiment 1. Cell-free cell culture supernatant was harvested and filtered (pore size=0.45 microm). The relative quantity of released virions was quantified by means of a p24^CA-antigen capture ELISA. For the purpose of virus titration, in each case 8 parallel cultures of C8166 cells were infected with the particular viral preparations, in a serial 10-fold dilution. The infectivity titer was determined as 50% cell culture infectious dose (TCID50), namely by determining syncytia formation for each culture and dilution step on day 10 post infection. […]

CC(=O)N[C@@H](CSC(=O)[C@]1([C@@H](O)C(C)C)NC(=O)[C@H](C)[C@@H]1O)C(=O)O [LC, lactacystin]
concentration tolerated in cell culture (mouse thymus cell lines): up to 6 μM | inhibition of protease activity (HIV-1 protease): not possible to detect any inhibition | inhibitory action on Gag processing by HIV-1 protease (HIV-1 protease): no inhibitory action whatsoever

C=C(C)C[C@H](NC(=O)[C@H](CO)NC(=O)CCCCC(C)C)C(=O)[C@@]1(CO)CO1 [eponemycin]
tolerability in HepG2 (HepG2): still tolerated well | number of core-positive cells compared to untreated cultures (DHBV; 1 μM, day 3 to day 6 after infection): much lower number of core-positive cells

CC[C@H](C)[C@H](NC(=O)[C@H]([C@@H](C)CC)N(C)C(C)=O)C(=O)N[C@H](C(=O)N[C@@H](CC(C)C)C(=O)[C@@]1(C)CO1)[C@@H](C)O [epoxomicin]
concentration from which toxic symptoms appeared (HepG2; human, 48 h): ≥ 100 nM

CC(C)c1nc(CN(C)C(=O)N[C@H](C(=O)N[C@@H](Cc2ccccc2)C[C@H](O)[C@H](Cc2ccccc2)NC(=O)OCc2cncs2)C(C)C)cs1 [ritonavir]
inhibition of chymotrypsin activity of the 20S proteasome (20S proteasome): can inhibit

CC(C)(C)NC(=O)[C@@H]1C[C@@H]2CCCC[C@@H]2CN1C[C@@H](O)[C@H](Cc1ccccc1)NC(=O)[C@H](CC(N)=O)NC(=O)c1ccc2ccccc2n1 [saquinavir]
in vitro processing of Pr55 (HIV-1 protease; control, FIG. 3 reaction 10): complete blockage

Cc1ccc(C(=O)Nc2ccc(S(=O)(=O)O)c3cc(S(=O)(=O)O)cc(S(=O)(=O)O)c23)cc1NC(=O)c1cccc(NC(=O)Nc2cccc(C(=O)Nc3cc(C(=O)Nc4ccc(S(=O)(=O)O)c5cc(S(=O)(=O)O)cc(S(=O)(=O)O)c45)ccc3C)c2)c1 [suramin]
number of the core-expressing cells (DHBV; 100 microg/ml, from three days after infection for three days): very greatly reduced | establishment of the primary infection (DHBV; pretreatment 100 microg/ml, 2 h pre-infection): completely blocks

CC(C)C[C@@H](C=O)NC(=O)[C@H](CC(C)C)NC(=O)[C@H](CC(C)C)NC(=O)OCc1ccccc1 [zLLL, N-carbobenzoxyl-L-leucinyl-L-leucinyl-L-leucinal] (Cbz-Leu-Leu-Leu-aldehyde)
effect on HIV-1 replication (HIV-1NL4-3 [1]; 1 microM): completely inhibits replication | productive infection in the culture (RT accumulation) (HIV-1NL4-3 [1]; FIG. 4 panel 1): no productive infection at all | productive infection in the culture (RT accumulation) (HIV-1NL4-3 [1]; FIG. 4 panel 2): only a very reduced productive infection | effect on HIV-1 replication (HIV-1NL4-3 [1]; 100 nanoM): relatively weak inhibitory effect | inhibition of protease activity (HIV-1 protease): not possible to detect any inhibition | inhibitory action on Gag processing by HIV-1 protease (HIV-1 protease): no inhibitory action whatsoever | Virus release ng p24^CA/ml (HIV-1NL4-3 [2]; 40 μM zLLL added immediately after washing (“0 hr”), 4.5 hours harvest, A3.01): 122 ng p24^CA/ml | Virus release ng p24^CA/ml (HIV-1NL4-3 [2]; 40 μM zLLL, 1 hour pretreatment (“−1 hr”) plus 4.5 hours harvest): 88 ng p24^CA/ml | Virus release ng p24^CA/ml (HIV-1NL4-3 [2]; 40 μM zLLL, 6 hours pretreatment (“−6 hr”) plus 4.5 hours harvest): 26 ng p24^CA/ml | kinetics of intracellular Gag processing and of the release of virus-associated and free Gag (HIV-1NL4-3 [3]): distinct delay | Infectivity Titer/ng p24^CA (HIV-1NL4-3 [4]; “0 hr”, 4.5 hours harvest): 1.0 × 10^4 Titer/ng p24^CA | Virus titer/ml TCID50 (HIV-1NL4-3 [4]; “0 hr”, 4.5 hours harvest): 1.2 × 10^6 TCID50/ml | Infectivity % of “no zLLL” (HIV-1NL4-3 [4]; “0 hr”, 4.5 hours harvest): 14% | Infectivity Titer/ng p24^CA (HIV-1NL4-3 [4]; “−1 hr” plus 4.5 hours harvest): 5.0 × 10^3 Titer/ng p24^CA | Virus titer/ml TCID50 (HIV-1NL4-3 [4]; “−1 hr” plus 4.5 hours harvest): 4.4 × 10^5 TCID50/ml | Infectivity % of “no zLLL” (HIV-1NL4-3 [4]; “−1 hr” plus 4.5 hours harvest): 7% | Infectivity Titer/ng p24^CA (HIV-1NL4-3 [4]; “−6 hr” plus 4.5 hours harvest): 1.5 × 10^3 Titer/ng p24^CA | Virus titer/ml TCID50 (HIV-1NL4-3 [4]; “−6 hr” plus 4.5 hours harvest): 3.8 × 10^4 TCID50/ml | Infectivity % of “no zLLL” (HIV-1NL4-3 [4]; “−6 hr” plus 4.5 hours harvest): 2% | reduction of infectious virions in the cell culture medium (HIV-1NL4-3 [4]; after 4.5 hours): 84% | reduction of infectious virions in the cell culture medium (HIV-1NL4-3 [4]; after another 6 hours of pretreatment): 98%
